1 compound from ChEMBL document CHEMBL3714737, “Small molecule modulators of G protein-coupled receptor six” (2002) can be followed below.

The test system of series [1] is Rattus norvegicus. Kind of series: Induction of sedation in non-food-deprived Sprague-Dawley rat subjected to pre-pulse of 12 db followed by 120 db pulse assessed as animal jump height level at 6.75 mg/kg, po dosed […] before test. It counts as organism-based. The following applies: in vivo.
Series [2] concerns Rattus norvegicus. Kind of series: Induction of sedation in non-food-deprived Sprague-Dawley rat subjected to pre-pulse of 12 db followed by 120 db pulse assessed as animal jump height level at 13.5 and 54 mg/kg, po dosed […] before test. It counts as organism-based. The following applies: in vivo.
The test system of series [3] is Rattus norvegicus. Description: Reduction in body weight gain in non-food-deprived Sprague-Dawley rat at 13.5 mg/kg, ip qd for 22 days measured between day-31 and day-60 post dose. It counts as functional, organism-based.
The subject of series [4] is Rattus norvegicus. Kind of series: Induction of sedation in ip dosed Sprague-Dawley rat assessed as absence of anxiety-like behavior after 16 hrs post dose. It counts as organism-based. The conditions noted are these: in vivo.
The subject of series [5] is Rattus norvegicus. Description: Reduction in food intake in 24 hrs food-deprived Sprague-Dawley rat assessed as food intake level at 54 mg/kg, po followed by standard chow pellets feeding and measured 8 hrs post dose (reference value: 14g). It counts as functional.
Series [6] deals with Rattus norvegicus. Kind of series: Reduction in water intake in 24 hrs food-deprived Sprague-Dawley rat at 6.75 to 54 mg/kg, ip followed by standard chow pellets feeding and measured for 6.5 hrs post dose. It counts as functional, organism-based.
For series [7], the system named is Rattus norvegicus. Kind of series: Reduction in body weight gain in non-food-deprived Sprague-Dawley rat at 13.5 mg/kg, ip qd for 22 days measured between day-4 and day-31 post dose. It counts as functional, organism-based.
The subject of series [8] is Rattus norvegicus. Kind of series: Reduction in 24 hrs food intake in 24 hrs food-deprived Sprague-Dawley rat at 6.75 to 54 mg/kg, ip followed by standard chow pellets feeding and measured for 6.5 hrs post dose. It counts as functional, organism-based.
Series [9] concerns Rattus norvegicus. Kind of series: Reduction in food intake in 24 hrs food-deprived Sprague-Dawley rat at 25 to 100 nmol, icv measured 2.5 hrs post dose relative to control. It counts as functional.
Series [10] has as its system Rattus norvegicus. Kind of series: Reduction in body weight gain in non-food-deprived Sprague-Dawley rat at 13.5 mg/kg, ip qd for 22 days measured on day-1 and day-3 post dose. It counts as functional, organism-based.
Series [11] deals with Rattus norvegicus. Kind of series: Effect on motor function in ip dosed Sprague-Dawley rat assessed as effect on locomotor activity after 16 hrs post dose. It counts as ADME, organism-based. The conditions noted are these: in vivo.
For series [12], the system named is Rattus norvegicus. Kind of series: Reduction in water intake in 24 hrs food-deprived Sprague-Dawley rat assessed reduction in water intake level at 100 nmol, icv relative to control. It counts as functional.
Series [13] concerns Rattus norvegicus. Kind of series: Reduction in body weight gain in non-food-deprived Sprague-Dawley rat at 6.75 to 54 mg/kg, ip dosed 30 mins before beginning of dark cycle followed by exposure to standard chow pellets and measured 15.5 hrs post dose. It counts as functional, organism-based.
Series [14] concerns Rattus norvegicus. Description: Reduction in body weight gain in 24 hrs food-deprived Sprague-Dawley rat at 6.75 to 54 mg/kg, ip followed by standard chow pellets feeding and measured for 6.5 hrs post dose. It counts as functional, organism-based.
Series [15] has as its system Rattus norvegicus. Kind of series: Effect on motor function in ip dosed Sprague-Dawley rat assessed as effect on locomotor activity after 1.5 hrs post dose. It counts as ADME, organism-based. The conditions noted are these: in vivo.
In series [16] the test system is Rattus norvegicus. Kind of series: Reduction in body weight gain in 24 hrs food-deprived Sprague-Dawley rat at 27 and 54 mg/kg, ip followed by standard chow pellets feeding and measured for 6.5 hrs post dose. It counts as functional, organism-based.
Series [17] deals with G-protein coupled receptor 6 (Homo sapiens) (UniProt P46095). Description: Activity at rat G-protein GSalpha fused GPR6 (unknown origin) expressed in HEK293 cell membranes assessed as effect on [35S]GTPgammaS binding pre-incubated for 5 to 10 mins followed by 60 mins incubation in presence of [35S]GTPgammaS by scintillation proximity assay. It counts as functional.
The test system of series [18] is Rattus norvegicus. Kind of series: Reduction in water intake in non-food-deprived Sprague-Dawley rat at 6.75 to 54 mg/kg, ip dosed 30 mins before beginning of dark cycle followed by exposure to standard chow pellets and measured 15.5 hrs post dose. It counts as functional, organism-based.
The test system of series [19] is Rattus norvegicus. Description: Induction of sedation in ip dosed Sprague-Dawley rat assessed as relaxed behavior after 16 hrs post dose. It counts as organism-based. The conditions noted are these: in vivo.

Structures are written as SMILES. Active and inactive are the calls of the source. No cut-off for these calls is given here.

Sequence of G-protein coupled receptor 6 (Homo sapiens) (P46095 whole entry, the tested form may be a part): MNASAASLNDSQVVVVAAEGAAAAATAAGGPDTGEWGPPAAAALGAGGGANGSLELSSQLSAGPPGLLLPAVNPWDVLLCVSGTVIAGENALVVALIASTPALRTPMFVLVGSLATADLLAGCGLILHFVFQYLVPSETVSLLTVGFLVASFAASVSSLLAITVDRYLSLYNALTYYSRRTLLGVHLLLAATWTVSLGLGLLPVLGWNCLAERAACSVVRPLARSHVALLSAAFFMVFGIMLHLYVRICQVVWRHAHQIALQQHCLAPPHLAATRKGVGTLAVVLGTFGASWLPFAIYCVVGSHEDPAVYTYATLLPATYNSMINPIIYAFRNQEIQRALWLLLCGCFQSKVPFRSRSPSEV

`O=C(/N=C1\SSC2=NCCN21)c1cccs1`: the Activity entry is listed as “Non-toxic” in the series on Rattus norvegicus [1]; “Toxic” in the series with Rattus norvegicus [2]; “Toxic” in the series on Rattus norvegicus [4]; 16 g with Rattus norvegicus [5]; “Toxic” in the series on Rattus norvegicus [11]; “Non-toxic” with Rattus norvegicus [15]. Also, in the series with Rattus norvegicus [19], the Activity result was “Toxic”. For the same compound, the result in the series on Rattus norvegicus [3], in the series with Rattus norvegicus [6], in the series with Rattus norvegicus [7], in the series with Rattus norvegicus [8], with Rattus norvegicus [10] and in the series on Rattus norvegicus [13] was Active. Besides, the result (with Rattus norvegicus [14]; in the series with Rattus norvegicus [16]; in series [17]; in the series on Rattus norvegicus [18]) was Active. For the same compound, in the series with Rattus norvegicus [9], the “fold change (FC)” value is reported as “<=6”. Further, in the series on Rattus norvegicus [12], the “inhibition (INH)” value is listed as “<=50%”.
